According to US4889849A, “Spasmolytically active tertiary amine derivatives” (Duphar International Research B.V., priority 1984, dated 1989):

Legend:
ileum of the guinea pig = assay: Spasmolytic activity in vivo (effect on the ileum of the guinea pig, contractions induced with intravenous carbachol); conditions: atropine = 1
Description: Effect on the ileum of the guinea pig.
The spasmolytic effect of the compounds was tested on the ilea of urethane-narcotised, empty-stomach guinea pigs of approximately 500 g (Zwagemakers, Arzn. Forsch. 30, 1517 (1980). Contractions of the intestine were induced every 7 minutes with intravenously administered carbachol in a dose of 5 μg per kg of body weight. After constant response had been reached, the test compounds were administered 3 minutes before the next dose of carbachol was given and the protecting effect was studied for 52 minutes. The contractions after administration of the test compounds were expressed as a percentage of the average of two control values. The average percentage of inhibition was calculated throughout the 52 minutes from the region under the curve. The maximum percentage of inhibition and the duration of the spasmolytic effect were also determined. The spasmolytic effect was considered to be finished when two successive contractions were 20% or less of the control value.

[1] = Central muscarinolytic side effect (tremors/analgesia, oxotremorine) relative to spasmolytic activity; conditions: mouse, in vivo, ip
Description: (§1) The choice of the dosage depends on the nature and the severity of the disease.
(§2) 3. Muscarinolytic "side effects".
(§3) The compounds to be tested and oxotremorine were administered intraperitoneally to femal DAP-mice at the same instant or, in case of analgesia, also 30 minutes previously.
(§4) Inhibition of the tremors and/or analgesia caused by oxotremorine is a measure of the central muscarinolytic activity, while the inhibition of saliva secretion or tear secretion reflects the peripheral muscarinolytic activity.

[2] = Peripheral muscarinolytic side effect (saliva/tear secretion, oxotremorine) relative to spasmolytic activity; conditions: mouse, in vivo, ip
Description: as §1, §2, §3, §4

SMILES | Spasm. activ. (ileum of the guinea pig) | selectivity ratio [1] | selectivity ratio [2]
CN1[C@@H]2CC[C@H]1C[C@@H](OC(=O)C(CO)c1ccccc1)C2 (stereo partly shown) [Atropine] | 1 |  | 
CCN(CCCC(=O)C1CCCCC1)C(C)Cc1ccc(OC)cc1 (stereo not shown) [Secoverine] | 0.6 | 2 | 50
